Data set [1] concerns the target T1, human cloned 5-HT2A receptor (Homo sapiens, UniProt P28223).
T1 construct: expressed in transfected cells; host or cells: L929 cells
As to the kind of experiment: In vitro binding affinity for 5-HT2A receptor (radioligand binding). Summed up:
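Competition binding used human cloned 5-HT2A receptor expressed in L929 cells with [^125I]R91150 as radioligand, incubated with varying test-compound concentrations to equilibrium. Bound and free radioactivity were separated and receptor-bound activity counted.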

For data set [2], the target named is T2, human cloned 5-HT2C receptor (Homo sapiens, UniProt P28335).
T2 construct: expressed in transfected cells; host or cells: CHO cells
T2 sequence (P28335 33-458): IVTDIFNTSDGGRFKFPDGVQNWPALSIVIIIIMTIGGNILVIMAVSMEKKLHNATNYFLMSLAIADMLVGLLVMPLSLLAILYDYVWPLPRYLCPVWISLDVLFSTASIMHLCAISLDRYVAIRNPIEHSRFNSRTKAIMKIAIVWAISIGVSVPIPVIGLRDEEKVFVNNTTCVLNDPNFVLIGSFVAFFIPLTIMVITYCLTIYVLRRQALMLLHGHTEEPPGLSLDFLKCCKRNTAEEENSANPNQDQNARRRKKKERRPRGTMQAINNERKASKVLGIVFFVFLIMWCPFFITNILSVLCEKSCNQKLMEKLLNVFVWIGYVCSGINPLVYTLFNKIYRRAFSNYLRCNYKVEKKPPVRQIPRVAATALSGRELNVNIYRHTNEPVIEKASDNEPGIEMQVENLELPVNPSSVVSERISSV
Description: In vitro binding affinity for 5-HT2C receptor (radioligand binding). An outline of the steps:
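Competition binding: test compound at various concentrations incubated with receptor preparation and radioligand to equilibrium. Receptor-bound radioactivity was separated from free and counted, with inhibition of radioligand binding reflecting affinity.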

A further data set addresses T3, NET (Rattus norvegicus, UniProt Q9WTR4).
T3 construct: Cortex from rat brain was collected and homogenised; from tissue; host or cells: rat brain cortex
As to the kind of experiment: In vitro determination of NET reuptake inhibition ([3H]Nixosetine binding, rat brain cortex). How it is done: Cortex from rat brain was collected and homogenised using an Ultra-Turrax T25 and a Dual homogeniser in ice-cold homogenising buffer containing Tris, NaCl and KCl (50 mM, 120 mM and 5 mM, respectively, pH 7.4) prior to dilution to an appropriate protein concentration optimised for specific and non-specific binding. […] Membrane-bound activity was detected by filtration through a Packard Filtermate harvester onto GF/B Unifilterplates, washed with ice-cold Tris-HCl buffer, containing NaCl and KCl (50 mM, 120 mM and 4 mM; pH 7.4; 6×0.5 ml). Filters were allowed to dry for 24 h before adding scintillation fluid. Scintillation fluid was allowed to saturate filters for 24 h before counting in a Topcount scintillation counter. Percentage specific bound and competition binding curves were calculated using S-Plus software (Insightful).

The target of data set [3] is T4, human Dopamine D2L receptor (Homo sapiens, UniProt P14416).
T4 construct: expressed in transfected cells; host or cells: CHO cells
T4 sequence (P14416 whole entry): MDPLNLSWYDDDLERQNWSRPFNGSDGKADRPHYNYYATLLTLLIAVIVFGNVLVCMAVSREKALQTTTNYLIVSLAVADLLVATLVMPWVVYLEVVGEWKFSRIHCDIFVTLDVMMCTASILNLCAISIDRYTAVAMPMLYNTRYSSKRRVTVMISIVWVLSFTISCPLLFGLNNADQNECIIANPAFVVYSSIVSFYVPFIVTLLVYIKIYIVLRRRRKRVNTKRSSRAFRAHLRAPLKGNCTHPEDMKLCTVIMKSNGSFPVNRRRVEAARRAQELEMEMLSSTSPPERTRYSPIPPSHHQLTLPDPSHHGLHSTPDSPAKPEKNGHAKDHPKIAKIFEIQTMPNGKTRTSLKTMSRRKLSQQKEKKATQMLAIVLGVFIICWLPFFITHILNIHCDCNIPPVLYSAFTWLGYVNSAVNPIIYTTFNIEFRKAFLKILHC
Description: In vitro binding affinity for human D2L receptor ([3H]Spiperone). An outline of the steps:
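Membranes from CHO cells expressing human D2L incubated 30 min at 37° C. with [3H]Spiperone (diluted to 2 nmol/L before addition) in Tris-HCl buffer, pH 7.7, with NaCl, CaCl2, MgCl2, KCl. Non-specific binding defined with 10^−6 mol/l Butaclamol; filtered, scintillation-counted, competition curves fitted.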

The mark [4] stands for this setting: human cloned 5-HT2A receptor, radioligand binding, read-out: h-5HT2A (converted).
[5] abbreviates: human cloned 5-HT2C receptor, radioligand binding, read-out: h-5HT2C (converted).
The mark [6] stands for this setting: rat brain cortex, [3H]Nixosetine, read-out: NET Reuptake Inhibition (converted).
Where [7] appears, read: human D2L receptor-transfected CHO cell membranes, [3H]Spiperone, read-out: h-D2L (converted).

Structures are written as SMILES. Structures can show the parent of a compound that is named as a salt. Where two headings read alike, the source gives them in different places. Some results are limits rather than exact numbers.

T1 sequence (P28223 whole entry): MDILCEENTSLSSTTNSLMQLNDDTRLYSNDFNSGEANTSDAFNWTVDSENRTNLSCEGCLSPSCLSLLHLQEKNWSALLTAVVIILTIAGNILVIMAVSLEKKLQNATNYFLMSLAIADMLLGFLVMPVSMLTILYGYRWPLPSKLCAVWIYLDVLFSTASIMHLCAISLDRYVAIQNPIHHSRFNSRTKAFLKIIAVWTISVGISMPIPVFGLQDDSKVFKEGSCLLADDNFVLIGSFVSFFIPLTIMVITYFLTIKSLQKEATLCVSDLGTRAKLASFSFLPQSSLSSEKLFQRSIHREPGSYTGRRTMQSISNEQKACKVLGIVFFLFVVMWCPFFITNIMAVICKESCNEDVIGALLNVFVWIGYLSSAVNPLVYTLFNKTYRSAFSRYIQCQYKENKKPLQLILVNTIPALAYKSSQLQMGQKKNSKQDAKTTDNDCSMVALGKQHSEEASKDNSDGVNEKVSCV
T3 sequence (Q9WTR4 1-597): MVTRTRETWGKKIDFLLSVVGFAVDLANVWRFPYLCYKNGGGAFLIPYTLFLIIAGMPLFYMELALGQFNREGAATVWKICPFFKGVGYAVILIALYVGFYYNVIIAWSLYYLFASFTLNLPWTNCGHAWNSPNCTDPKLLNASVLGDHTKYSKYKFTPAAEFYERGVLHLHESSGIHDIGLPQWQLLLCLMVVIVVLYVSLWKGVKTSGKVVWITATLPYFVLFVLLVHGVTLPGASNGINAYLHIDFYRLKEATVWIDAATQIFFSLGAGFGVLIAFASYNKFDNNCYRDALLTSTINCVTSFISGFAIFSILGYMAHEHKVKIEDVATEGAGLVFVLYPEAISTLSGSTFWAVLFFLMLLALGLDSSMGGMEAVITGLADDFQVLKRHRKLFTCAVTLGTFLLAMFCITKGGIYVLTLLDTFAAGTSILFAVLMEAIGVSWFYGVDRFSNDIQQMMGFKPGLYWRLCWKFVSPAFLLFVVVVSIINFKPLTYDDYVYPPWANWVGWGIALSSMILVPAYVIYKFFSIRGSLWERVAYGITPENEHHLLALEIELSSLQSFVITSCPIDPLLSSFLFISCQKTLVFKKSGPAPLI

In turn, `CCNCC1CC2=C(O1)c1cc(F)ccc1Sc1ccccc12` (stereo not drawn) (as salt: oxalate) [Compound 18] registered a melting point of 240.7 °C.

`CN(C)CC1CC2=C(O1)c1ccccc1Cc1ccccc12` (stereo not drawn) (as salt: oxalate) [Compound 22]: the melting point turned out to be 172.8 °C.

As for `CCCn1c2c(c3ccccc31)C1=C(CC(CNC)O1)c1ccccc1S2` (stereo not drawn) [Compound 93], the IC50 in data set [1] (setting [4]) is 25.1 nM; in data set [2] (setting [5]) it was 10 nM; at NET (setting [6]) it was 100 nM; in data set [3] (setting [7]), 398 nM.

As to `CCCn1c2c(c3ccccc31)C1=C(CC(CN(C)C)O1)c1ccccc1S2` (stereo not drawn) [Compound 94], the IC50 in data set [1] (setting [4]) is 126 nM; in data set [2] (setting [5]), 39.8 nM; on NET (setting [6]), 1260 nM; in data set [3] (setting [7]) it was 1000 nM.

As for `C=CCn1c2c(c3ccccc31)C1=C(CC(CNC)O1)c1ccccc1S2` (stereo not drawn) [Compound 95], the IC50 is 7.94 nM in data set [1] (setting [4]), 6.31 nM in data set [2] (setting [5]), 158 nM at NET (setting [6]) and 398 nM in data set [3] (setting [7]).

Regarding `CN(CC(=O)O)C[C@H]1CC2=C(O1)c1cc(F)ccc1Cc1ccccc12` [Compound 107], the melting point amounted to 194.7 °C. Besides, in data set [1] (setting [4]), the IC50 is 10 nM. For the same molecule, the IC50 in data set [2] (setting [5]) is 7.94 nM. The IC50 in data set [3] (setting [7]) is 3980 nM.

For `CN(CCC(=O)O)C[C@H]1CC2=C(O1)c1cc(F)ccc1Cc1ccccc12` [Compound 108], the IC50 was 12.6 nM in data set [1] (setting [4]), 12.6 nM in data set [2] (setting [5]), 398 nM on NET (setting [6]) and 3980 nM in data set [3] (setting [7]).

For `CN(C/C=C/C(=O)O)C[C@H]1CC2=C(O1)c1cc(F)ccc1Cc1ccccc12` [Compound 109], the IC50 in data set [1] (setting [4]) is 15.8 nM; in data set [2] (setting [5]), 12.6 nM; on NET (setting [6]), 398 nM; in data set [3] (setting [7]) it was 3160 nM.

For the molecule `CN(C/C=C/c1ccccc1)C[C@H]1CC2=C(O1)c1cc(F)ccc1Cc1ccccc12` [Compound 110], the IC50 in data set [1] (h-5HT2A) was 12.6 nM; in data set [2] (h-5HT2C), 5.01 nM; at NET (NET Reuptake Inhibition), 1000 nM; in data set [3] (h-D2L), 158 nM.

In the case of `CCOC(=O)CN(C)C[C@H]1CC2=C(O1)c1cc(F)ccc1Cc1ccccc12` [Compound 113], the IC50 in data set [1] (setting [4]) was 15.8 nM; in data set [2] (setting [5]), 10 nM; on NET (setting [6]) it was 3980 nM; in data set [3] (setting [7]), 1580 nM.

Regarding `CNC(=O)CN(C)C[C@H]1CC2=C(O1)c1cc(F)ccc1Cc1ccccc12` [Compound 116], the IC50 in data set [1] (setting [4]) is 10 nM; in data set [2] (setting [5]), 7.94 nM; on NET (setting [6]), 2510 nM; in data set [3] (setting [7]), 3160 nM.

Turning to `CN(CC(=O)NS(C)(=O)=O)C[C@H]1CC2=C(O1)c1cc(F)ccc1Cc1ccccc12` [Compound 120], the melting point was found to be 88.5 °C.

In the case of `CCS(=O)(=O)N(C)CC1CC2=C(O1)c1cc(F)ccc1Cc1ccccc12` (stereo not drawn) [Compound 127], the IC50 is 200 nM in data set [1] (setting [4]), 10 nM in data set [2] (setting [5]), > 10000 nM at NET (setting [6]) and > 10000 nM in data set [3] (setting [7]).

Molecule `CN(C)CC1CC2=C(O1)c1ccsc1Cc1ccccc12` (stereo not drawn) [Compound 131] registered a melting point of 174 to 176 °C. Further, in data set [1] (setting [4]), the IC50 was 39.8 nM. In data set [2] (setting [5]), the IC50 was 7.94 nM. The IC50 on NET (setting [6]) was 794 nM. Also, the IC50 in data set [3] (setting [7]) is 200 nM.

As to `CNCC1CC2=C(O1)c1ccc(F)cc1Cc1ccccc12` (stereo not drawn) [Compound 135], the IC50 in data set [1] (setting [4]) is 5.01 nM; in data set [2] (setting [5]), 2.51 nM; at NET (setting [6]) it was 631 nM; in data set [3] (setting [7]), 3160 nM.

`CNCC1CC2=C(O1)c1c(F)cccc1Cc1ccccc12` (stereo not drawn) [Compound 136]: the IC50 in data set [1] (setting [4]) was 25.1 nM; in data set [2] (setting [5]), 2 nM; at NET (setting [6]), 100 nM; in data set [3] (setting [7]), 1580 nM.

On to `CN(C)CCC1CC2=C(O1)c1cc(F)ccc1Cc1ccccc12` (stereo not drawn) [Compound 137], for which the IC50 in data set [1] (setting [4]) is 12.6 nM; in data set [2] (setting [5]) it was 3.16 nM; on NET (setting [6]) it was 158 nM; in data set [3] (setting [7]), 1580 nM.

The values above are taken from US8022102B2, “Unsaturated tetracyclic tetrahydrofuran derivatives” (Janssen Pharmaceutica, NV, priority 2004, dated 2011).
